Results reported in publication PMC10424185, “C-2 Thiophenyl Tryptophan Trimers Inhibit Cellular Entry of SARS-CoV-2 through Interaction with the Viral Spike (S) Protein” (Journal of Medicinal Chemistry, 2023).

Tests used:
[1] = tested on: SARS-CoV-2 virus carrying the D614G S mutation; assay type: cell-based
[2] = tested on: SARS-CoV-2 virus carrying the D614G S mutation; assay type: cell-based; remark: listed apart in the source

SMILES | relative virus production vs mock-treatment, A549-ACE2 cells [1] | relative virus production vs mock-treatment, VeroE6-TMPRSS2 cells [2]
CCC(CC)COC(=O)[C@H](C)N[P@](=O)(OC[C@H]1O[C@@](C#N)(c2ccc3c(N)ncnn23)[C@H](O)[C@@H]1O)Oc1ccccc1 [remdesivir, reference compound] | 0.002 ± 0.002 | 0.002 ± 0.001
NCCOCCOCCC(=O)NCC(=O)NC(CCC(=O)NC(Cc1c(Sc2ccc([N+](=O)[O-])cc2)[nH]c2ccccc12)C(=O)O)(CCC(=O)NC(Cc1c(Sc2ccc([N+](=O)[O-])cc2)[nH]c2ccccc12)C(=O)O)CCC(=O)NC(Cc1c(Sc2ccc([N+](=O)[O-])cc2)[nH]c2ccccc12)C(=O)O (stereo not shown) [Compound 63] | 0.035 ± 0.032 | 0.059 ± 0.018
